# Laboratory results from patent US20220402925A1, “COMPOUNDS AND METHODS FOR THE TREATMENT OF CYSTIC FIBROSIS” (Flatley Discovery Lab, LLC, priority 2019, published 2022).
# Molecular target: T1, F508del CFTR (Homo sapiens, UniProt P13569, DEL508-508)
# T1 construct: Primary CF airway epithelial cells were obtained from the UNC Cystic Fibrosis Tissue Procurement and Cell Culture Core; host or cells: primary CF airway epithelial cells
# Test: Equivalent current assay in primary CF airway epithelial cells (Corrector Activity, NAUC normalized to 3 μM VX809)
# Assay type: cell-based
# Settings: NAUC as % of positive control (VX-809)
# Procedure, shortened: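 Readout is NAUC: current area from forskolin/potentiator addition until CFTR-172, minus vehicle, relative to 3 μM VX809 (=1.0). Cells were primary CF epithelia at air-liquid interface ≥4 weeks, given basolateral compound for 24 h at 37° C; median of n≥4 replicates, sigmoid fit with nH fixed at 1.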
# T1 sequence (P13569 with tags, fused parts or gaps DEL508-508): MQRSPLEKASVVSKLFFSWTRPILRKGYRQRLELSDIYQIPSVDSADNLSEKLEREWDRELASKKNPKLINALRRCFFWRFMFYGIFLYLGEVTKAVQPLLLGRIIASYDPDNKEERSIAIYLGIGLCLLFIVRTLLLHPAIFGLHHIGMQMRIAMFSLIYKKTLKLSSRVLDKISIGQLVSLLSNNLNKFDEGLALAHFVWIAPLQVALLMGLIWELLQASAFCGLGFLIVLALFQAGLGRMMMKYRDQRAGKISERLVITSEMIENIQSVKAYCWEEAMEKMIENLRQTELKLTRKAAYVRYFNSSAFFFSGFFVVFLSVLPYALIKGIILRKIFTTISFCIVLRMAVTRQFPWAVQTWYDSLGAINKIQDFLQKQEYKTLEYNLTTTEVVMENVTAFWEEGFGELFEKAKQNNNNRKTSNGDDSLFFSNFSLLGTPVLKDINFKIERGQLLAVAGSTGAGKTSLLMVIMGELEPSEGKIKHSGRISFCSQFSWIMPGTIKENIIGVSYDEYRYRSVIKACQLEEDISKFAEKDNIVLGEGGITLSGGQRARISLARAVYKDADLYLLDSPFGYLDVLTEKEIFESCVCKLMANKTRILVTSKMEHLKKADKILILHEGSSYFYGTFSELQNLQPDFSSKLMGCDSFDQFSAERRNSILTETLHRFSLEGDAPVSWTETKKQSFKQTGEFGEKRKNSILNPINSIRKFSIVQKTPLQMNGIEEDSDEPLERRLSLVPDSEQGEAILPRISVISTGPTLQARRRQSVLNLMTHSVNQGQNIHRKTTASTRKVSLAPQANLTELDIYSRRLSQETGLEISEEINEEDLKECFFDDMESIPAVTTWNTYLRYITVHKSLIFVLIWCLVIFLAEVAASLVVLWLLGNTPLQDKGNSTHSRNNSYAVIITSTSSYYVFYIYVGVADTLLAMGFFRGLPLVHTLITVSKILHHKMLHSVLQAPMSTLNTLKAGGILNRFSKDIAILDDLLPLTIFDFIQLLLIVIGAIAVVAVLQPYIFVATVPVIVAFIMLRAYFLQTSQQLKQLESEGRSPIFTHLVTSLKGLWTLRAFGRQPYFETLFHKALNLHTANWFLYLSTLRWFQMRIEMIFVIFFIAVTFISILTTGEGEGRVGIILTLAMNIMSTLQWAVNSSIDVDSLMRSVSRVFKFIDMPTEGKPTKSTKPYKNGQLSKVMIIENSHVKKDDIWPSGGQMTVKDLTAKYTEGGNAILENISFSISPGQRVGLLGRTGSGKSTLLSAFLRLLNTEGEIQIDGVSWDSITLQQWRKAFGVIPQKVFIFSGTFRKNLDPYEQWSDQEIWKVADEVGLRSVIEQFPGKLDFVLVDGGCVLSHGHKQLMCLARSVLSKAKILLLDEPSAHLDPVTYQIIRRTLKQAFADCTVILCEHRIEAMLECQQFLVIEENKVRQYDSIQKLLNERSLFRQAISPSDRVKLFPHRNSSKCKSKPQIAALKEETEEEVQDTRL
row,Compound,Corr Activity (NAUC)
1,CCN(C(=O)Cn1nc(-c2cc(F)cc(C#N)c2)c2occc2c1=O)c1cc2c(cc1C)OC(F)(F)O2 [Example 167],+++ (NAUC>70% of positive control)
2,Cc1cc2c(cc1N(C)C(=O)Cn1nc(-c3cc(Cl)cc(C#N)c3)c3occc3c1=O)OC(F)(F)O2 [Example 168],+++ (NAUC>70% of positive control)
3,CCN(C(=O)Cn1nc(-c2cc(Cl)cc(C#N)c2)c2occc2c1=O)c1cc2c(cc1C)OC(F)(F)O2 [Example 169],+++ (NAUC>70% of positive control)
4,Cc1c(N(C)C(=O)Cn2nc(-c3cc(F)cc(C#N)c3)c3occc3c2=O)ccc2c1OC(F)(F)O2 [Example 170],++ (NAUC 70-40% of positive control)
5,Cc1c(N(C)C(=O)Cn2nc(-c3cc(Cl)cc(C#N)c3)c3occc3c2=O)ccc2c1OC(F)(F)O2 [Example 171],+++ (NAUC>70% of positive control)
6,CCN(C(=O)Cn1nc(-c2cc(Cl)cc(C#N)c2)c2occc2c1=O)c1ccc2c(c1C)OC(F)(F)O2 [Example 172],+++ (NAUC>70% of positive control)
7,CCN(C(=O)Cn1nc(-c2cc(F)cc(C#N)c2)c2occc2c1=O)c1ccc2c(c1C)OC(F)(F)O2 [Example 173],+++ (NAUC>70% of positive control)
8,CCN(C(=O)Cn1nc(-c2cc(Cl)cc(Cl)c2)c2occc2c1=O)c1ccc2c(c1)OC(F)(F)O2 [Example 174],++ (NAUC 70-40% of positive control)
9,CCN(C(=O)Cn1nc(-c2cc(F)cc(F)c2)c2occc2c1=O)c1ccc2c(c1)OC(F)(F)O2 [Example 175],+++ (NAUC>70% of positive control)
10,CCN(C(=O)Cn1nc(-c2cc(F)cc(Cl)c2)c2occc2c1=O)c1ccc2c(c1)OC(F)(F)O2 [Example 176],+++ (NAUC>70% of positive control)
11,CCN(C(=O)Cn1nc(-c2cc(F)cc(C#N)c2)c2occc2c1=O)c1ccc2c(c1)OC(F)(F)O2 [Example 177],+++ (NAUC>70% of positive control)
12,Cc1cc2c(cc1N(C)C(=O)Cn1nc(-c3cc(F)cc(C#N)c3)c3occ(C(F)(F)F)c3c1=O)OC(F)(F)O2 [Example 178],+ (NAUC<40% of positive control)
13,CCN(C(=O)Cn1nc(-c2cc(F)cc(C#N)c2)c2occ(C(F)(F)F)c2c1=O)c1cc2c(cc1C)OC(F)(F)O2 [Example 179],++ (NAUC 70-40% of positive control)
14,"CN(C(=O)Cn1nc(-c2cccc(C#N)c2)c2oc(C(F)F)cc2c1=O)c1ccc2c(c1)OC(F)(F)O2 [Example 180, 2-(7-(3-cyanophenyl)-2-(difluoromethyl)-4-oxofuro[2,3-d]pyridazin-5(4H)-yl)-N-(2,2-difluorobenzo[d][1,3]dioxol-5-yl)-N-methylacetamide]",+++ (NAUC>70% of positive control)
15,"CN(C(=O)Cn1nc(-c2cccc(Cl)c2)c2oc(NC(=O)OC(C)(C)C)cc2c1=O)c1ccc2c(c1)OC(F)(F)O2 [Example 181, tert-butyl (7-(3-chlorophenyl)-5-(2-((2,2-difluorobenzo[d][1,3]dioxol-5-yl)(methyl)amino)-2-oxoethyl)-4-oxo-4,5-dihydrofuro[2,3-d]pyridazin-2-yl)carbamate]",+++ (NAUC>70% of positive control)
16,"CN(C(=O)Cn1nc(-c2cccc(C#N)c2)c2oc(CN3CCCCC3)cc2c1=O)c1ccc2c(c1)OC(F)(F)O2 [Example 182, 2-(7-(3-cyanophenyl)-4-oxo-2-(piperidin-1-ylmethyl)furo[2,3-d]pyridazin-5(4H)-yl)-N-(2,2-difluorobenzo[d][1,3]dioxol-5-yl)-N-methylacetamide]",+++ (NAUC>70% of positive control)
17,"CC(O)c1cc2c(=O)n(CC(=O)N(C)c3ccc4c(c3)OC(F)(F)O4)nc(-c3cccc(Cl)c3)c2o1 (centres unmarked) [Example 183, 2-(7-(3-chlorophenyl)-2-(1-hydroxyethyl)-4-oxofuro[2,3-d]pyridazin-5(4H)-yl)-N-(2,2-difluorobenzo[d][1,3]dioxol-5-yl)-N-methylacetamide]",+++ (NAUC>70% of positive control)
18,"CN(C(=O)Cn1nc(-c2cccc(Cl)c2)c2oc(C(C)(C)O)cc2c1=O)c1ccc2c(c1)OC(F)(F)O2 [Example 184, 2-(7-(3-chlorophenyl)-2-(2-hydroxypropan-2-yl)-4-oxofuro[2,3-d]pyridazin-5(4H)-yl)-N-(2,2-difluorobenzo[d][1,3]dioxol-5-yl)-N-methylacetamide]",+++ (NAUC>70% of positive control)
19,CN(C(=O)Cn1nc(-c2cccc(Cl)c2)c2oc(C(F)F)cc2c1=O)c1ccc2c(c1)OC(F)(F)O2 [Example 185],+++ (NAUC>70% of positive control)
20,CCN(C(=O)Cn1nc(-c2cccc(Cl)c2)c2oc(C(F)F)cc2c1=O)c1ccc2c(c1)OC(F)(F)O2 [Example 186],+++ (NAUC>70% of positive control)
21,CCN(C(=O)Cn1nc(-c2cccc(C#N)c2)c2oc(C(F)F)cc2c1=O)c1ccc2c(c1)OC(F)(F)O2 [Example 187],+++ (NAUC>70% of positive control)
22,CCN(C(=O)Cn1nc(-c2cc(C#N)cc(C(C)(C)C)c2)c2oc(C(F)F)cc2c1=O)c1ccc2c(c1)OC(F)(F)O2 [Example 188],+++ (NAUC>70% of positive control)

row,Compound,Corr Activity (NAUC)
1,CCN(C(=O)Cn1nc(-c2cc(C)cc(C#N)c2)c2oc(C(F)F)cc2c1=O)c1ccc2c(c1)OC(F)(F)O2 [Example 189],+++ (NAUC>70% of positive control)
2,CCN(C(=O)Cn1nc(-c2cc(C#N)cc(OC)c2)c2oc(C(F)F)cc2c1=O)c1ccc2c(c1)OC(F)(F)O2 [Example 190],+++ (NAUC>70% of positive control)
3,CCN(C(=O)Cn1nc(-c2cc(F)cc(C#N)c2)c2oc(C(F)F)cc2c1=O)c1ccc2c(c1)OC(F)(F)O2 [Example 191],+++ (NAUC>70% of positive control)
4,CCN(C(=O)Cn1nc(-c2cc(Cl)cc(C#N)c2)c2oc(C(F)F)cc2c1=O)c1ccc2c(c1)OC(F)(F)O2 [Example 192],+++ (NAUC>70% of positive control)
5,Cc1cc2c(cc1N(C)C(=O)Cn1nc(-c3cc(Cl)cc(C#N)c3)c3oc(C(F)F)cc3c1=O)OC(F)(F)O2 [Example 193],+++ (NAUC>70% of positive control)
6,CCN(C(=O)Cn1nc(-c2cc(Cl)cc(C#N)c2)c2oc(C(F)F)cc2c1=O)c1cc2c(cc1C)OC(F)(F)O2 [Example 194],+++ (NAUC>70% of positive control)
7,CCN(C(=O)Cn1nc(-c2cc(F)cc(C#N)c2)c2oc(C(F)F)cc2c1=O)c1ccc2c(c1C)OC(F)(F)O2 [Example 195],++ (NAUC 70-40% of positive control)
8,CCN(C(=O)Cn1nc(-c2cc(Cl)cc(C#N)c2)c2oc(C(F)F)cc2c1=O)c1ccc2c(c1C)OC(F)(F)O2 [Example 196],++ (NAUC 70-40% of positive control)
9,CN(C(=O)Cn1nc(-c2cccc(C#N)c2)c2oc(C(F)F)cc2c1=O)c1ccc2c(c1F)OC(F)(F)O2 [Example 197],+++ (NAUC>70% of positive control)
10,CCN(C(=O)Cn1nc(-c2cc(C#N)cc(C(F)F)c2)c2oc(C(F)F)cc2c1=O)c1ccc2c(c1)OC(F)(F)O2 [Example 198],++ (NAUC 70-40% of positive control)
11,CN(C(=O)Cn1nc(-c2cccc(C#N)c2)c2oc(CN3CCOCC3)cc2c1=O)c1ccc2c(c1)OC(F)(F)O2 [Example 199],+ (NAUC<40% of positive control)
12,CN(C(=O)Cn1nc(-c2cccc(C#N)c2)c2oc(CN3CCCC3)cc2c1=O)c1ccc2c(c1)OC(F)(F)O2 [Example 200],++ (NAUC 70-40% of positive control)
13,CCN(C(=O)Cn1nc(-c2cccc(C#N)c2)c2oc(CN3CCCCC3)cc2c1=O)c1ccc2c(c1)OC(F)(F)O2 [Example 201],+++ (NAUC>70% of positive control)
14,CCN(C(=O)Cn1nc(-c2cccc(C#N)c2)c2oc(CN3CCOCC3)cc2c1=O)c1ccc2c(c1)OC(F)(F)O2 [Example 202],+++ (NAUC>70% of positive control)
15,CCN(C(=O)Cn1nc(-c2cccc(C#N)c2)c2oc(CN3CCCC3)cc2c1=O)c1ccc2c(c1)OC(F)(F)O2 [Example 203],+++ (NAUC>70% of positive control)
16,CN(C(=O)Cn1nc(-c2cccc(C#N)c2)c2oc(C(C)(C)O)cc2c1=O)c1ccc2c(c1)OC(F)(F)O2 [Example 204],+++ (NAUC>70% of positive control)
17,"CN(C(=O)Cn1nc(-c2cccc(Cl)c2)c2oc(C(=O)NC(C)(C)C)cc2c1=O)c1ccc2c(c1)OC(F)(F)O2 [Example 205, N-(tert-butyl)-7-(3-chlorophenyl)-5-(2-((2,2-difluorobenzo[d][1,3]dioxol-5-yl)(methyl)amino)-2-oxoethyl)-4-oxo-4,5-dihydrofuro[2,3-d]pyridazine-2-carboxamide]",+++ (NAUC>70% of positive control)
18,CCN(C(=O)Cn1nc(-c2cccc(C#N)c2)c2oc(C(=O)NC3(C)CC3)cc2c1=O)c1ccc2c(c1)OC(F)(F)O2 [Example 206],++ (NAUC 70-40% of positive control)
19,CCN(C(=O)Cn1nc(-c2cccc(C#N)c2)c2oc(C(=O)N3CCCC34CC4)cc2c1=O)c1ccc2c(c1)OC(F)(F)O2 [Example 207],+++ (NAUC>70% of positive control)
20,CCN(C(=O)Cn1nc(-c2cccc(C#N)c2)c2oc(C(=O)N(C)C(C)(C)C)cc2c1=O)c1ccc2c(c1)OC(F)(F)O2 [Example 208],+++ (NAUC>70% of positive control)
21,CN(C(=O)Cn1nc(-c2cccc(Cl)c2)c2oc(C(=O)NCCO)cc2c1=O)c1ccc2c(c1)OC(F)(F)O2 [Example 212],+ (NAUC<40% of positive control)
22,"CN(C(=O)Cn1nc(-c2cc(C#N)cc(C(=O)O)c2)c2occc2c1=O)c1ccc2c(c1)OC(F)(F)O2 [Example 213, 3-cyano-5-(5-(2-((2,2-difluorobenzo[d][1,3]dioxol-5-yl)(methyl)amino)-2-oxoethyl)-4-oxo-4,5-dihydrofuro[2,3-d]pyridazin-7-yl)benzoic acid]",+ (NAUC<40% of positive control)
